Data as given in ChEMBL document CHEMBL4422644, “Synthesis and evaluation of α-aminoacyl amides as antitubercular agents effective on drug resistant tuberculosis” (Eur J Med Chem, 2019).
Values after ≈ are worked out from the molar mass of the structure shown.

Assays:
Assay type in all cases: functional
[1] = system: Mycobacterium tuberculosis; assay: Antitubercular activity against multidrug-resistant Mycobacterium tuberculosis isolate 6 after 7 days; details: isolate 6, 168 h
[2] = system: Mycobacterium tuberculosis; assay: Antitubercular activity against multidrug-resistant Mycobacterium tuberculosis isolate 3 after 7 days; details: isolate 3, 168 h
[3] = system: Mycobacterium tuberculosis; assay: Antitubercular activity against multidrug-resistant Mycobacterium tuberculosis isolate 7 after 7 days; details: isolate 7, 168 h
[4] = system: Mycobacterium tuberculosis; assay: Antitubercular activity against isoniazid/ethionamide resistant Mycobacterium tuberculosis isolate 1 after 7 days; details: isolate 1, 168 h
[5] = system: Mycobacterium tuberculosis; assay: Antitubercular activity against multidrug-resistant Mycobacterium tuberculosis isolate 8 after 7 days; details: isolate 8, 168 h
[6] = system: Mycobacterium tuberculosis; assay: Antitubercular activity against multidrug-resistant Mycobacterium tuberculosis isolate 4 after 7 days; details: isolate 4, 168 h
[7] = system: Mycobacterium tuberculosis; assay: Antitubercular activity against isoniazid/ethionamide resistant Mycobacterium tuberculosis isolate 2 after 7 days; details: isolate 2, 168 h
[8] = system: Mycobacterium tuberculosis; assay: Antitubercular activity against isoniazid/rifampicin resistant Mycobacterium tuberculosis isolate 5 after 7 days; details: isolate 5, 168 h

| Compound | MIC [1] [µg/mL] | MIC [2] [µg/mL] | MIC [3] [µg/mL] | MIC [4] [µg/mL] | MIC [5] [µg/mL] | MIC [6] [µg/mL] | MIC [7] [µg/mL] | MIC [8] [µg/mL] |
| --- | --- | --- | --- | --- | --- | --- | --- | --- |
| CC[C@@H](CO)NCCN[C@@H](CC)CO [ETHAMBUTOL] | 4 (≈ 19.6 µM) | 4 (≈ 19.6 µM) | 8 (≈ 39.2 µM) | 2 (≈ 9.79 µM) | > 8 | 8 (≈ 39.2 µM) | 4 (≈ 19.6 µM) | – |
| Cc1nc(C)c(C(=O)N(c2cccc(C)c2C)C(C(=O)NC2CCCCC2)c2cccnc2)s1 (stereo not drawn) | 8 (≈ 16.8 µM) | 1 (≈ 2.1 µM) | 2 (≈ 4.2 µM) | 4 (≈ 8.39 µM) | 8 (≈ 16.8 µM) | 2 (≈ 4.2 µM) | 1 (≈ 2.1 µM) | 2 (≈ 4.2 µM) |
| NC[C@H]1O[C@H](O[C@H]2[C@H](O)[C@@H](O[C@H]3O[C@H](CO)[C@@H](O)[C@H](N)[C@H]3O)[C@H](N)C[C@@H]2N)[C@H](O)[C@@H](O)[C@@H]1O [KANAMYCIN] | 8 (≈ 16.5 µM) | 32 (≈ 66 µM) | 8 (≈ 16.5 µM) | 16 (≈ 33 µM) | 16 (≈ 33 µM) | 8 (≈ 16.5 µM) | 32 (≈ 66 µM) | – |
| CO[C@H]1/C=C/O[C@@]2(C)Oc3c(C)c(O)c4c(O)c(c(/C=N/N5CCN(C)CC5)c(O)c4c3C2=O)NC(=O)/C(C)=C\C=C\[C@H](C)[C@H](O)[C@@H](C)[C@@H](O)[C@@H](C)[C@H](OC(C)=O)[C@@H]1C [RIFAMPIN] | 128 (≈ 156 µM) | 64 (≈ 77.8 µM) | > 128 | 32 (≈ 38.9 µM) | > 128 | 32 (≈ 38.9 µM) | 4 (≈ 4.86 µM) | 128 (≈ 156 µM) |
| NNC(=O)c1ccncc1 [ISONIAZID] | > 5 | > 0.2 | 5 (≈ 36.5 µM) | 5 (≈ 36.5 µM) | 5 (≈ 36.5 µM) | > 5 | > 0.2 | 5 (≈ 36.5 µM) |
